Results from patent publication US20250263412A1, “NON-HYDROXAMATE HDAC6 INHIBITORS AND RELATED METHODS OF USE” (The Regents of the University of Michigan, priority 2021, published 2025).

Columns and labels:
[1] = system: HDAC6 versus all other known HDAC isozymes; conditions: cited from earlier work
db/db mice = assay: Body weight study in db/db mice; assay type: in vivo, mouse; conditions: SE-7552 50 mg/kg, i.p., daily
Description: (§1) Animals were housed at a 12 hours dark/light cycle, temperature and humidity controlled rooms. Mice were purchased from the Jackson LABoratory, except the HDAC6 global knockout (KO) mice, which were provided by Dr. Timothy A. Mckinsey (University of Colorado Anschutz Medical Campus, Aurora, CO, USA.). Mice were fed either regular chow or high fat diet (60 kcal % fat, Research Diets) to induce obesity (diet-induced obesity) and had free access to food and water unless specified. Body composition was analyzed with Bruker's minispec LF50 Body Composition Analyzer. Blood glucose was measured from tail vein by Contour blood glucose monitor system (Bayer). TubA (25 mg/kg body weight) or SE-7552 (50 mg/kg body weight) were administered within 1 hr before dark cycle daily by intraperitoneal (ip.) injections. For intraperitoneal injections, drugs or vehicle was injected at 25 uL volumes per animal. Mice and their food were measured daily or weekly to track body weight and food intake. Hematoxylin and eosin (H&E) staining of liver sections of diet-induced obese mice were done after one month of vehicle or TubA injections.

wild-type DIO mice = assay: Diet-induced obesity study, daily intraperitoneal injections; assay type: in vivo, mouse
Description: as §1

Row | Compound | selectivity versus all other known HDAC isozymes [1] | weight loss (body weight change, FIG. 1f) (db/db mice) | obesity (body weight change, FIG. 1e) (wild-type DIO mice; SE-7552 50 mg/kg, i.p., daily) | diet-induced obesity (FIG. 2) (wild-type DIO mice; Tubastatin 25 mg/kg, daily i.p.)
1 | CC(Nc1ncc(-c2nnc(C(F)F)o2)cn1)c1ccc(F)cc1 (stereo not shown) [SE7552] | About 1000 fold | ineffective at inducing weight loss | effectively reduces obesity | –
2 | CN1CCc2c(c3ccccc3n2Cc2ccc(C(=O)NO)cc2)C1 [Tubastatin A] | – | – | – | Reverses Diet-Induced Obesity
